Patent publication US20260027116A1, “Methods of Treating Chronic Graft-Versus-Host Disease Following Allogeneic Hematopoietic Stem Cell Transplantation” (Kadmon Corporation, LLC, priority 2022, published 2026)

How the values were obtained:
patients with cGVHD = test: Example 2: safety, adverse events, relative dose intensity; assay type: in vivo; conditions: for Hyperglycemia / Hypertension / Pneumonia: Grade ≥ 3; for ALT increased / AST increased / Bilirubin conjugated increased / Blood alkaline phosphatase increased / GGT increased / Hypoalbuminemia / LFT increased / Transaminases increased: Liver-related AE
Method: All responses were assessed by the study site investigators.

[1] = Example 1: plasma pharmacokinetics (Cmax, Tmax, AUC0-6 hr) of belumosudil and metabolites; assay type: in vivo, human; conditions: for AUC0-6 hr, Geometric Mean (Geometric Coefficient of Variation): plasma
Method: Cmax was the maximum observed plasma concentration, obtained by a non-compartmental analysis. […] Timeframe: Cycles 1 and 2: pre-dose (0 hour), 1, 2, 3, 4, 5, and 6 hours post-dose on Day 1. […] Here, ‘number analyzed’=participants with available data for each specified category.
Tmax was defined as time to reach maximum observed plasma concentration, obtained by a non-compartmental analysis. […] Timeframe: Cycles 1 and 2: pre-dose (0 hour), 1, 2, 3, 4, 5, and 6 hours post-dose on Day 1. Analysis was performed on PK population. Here, ‘number analyzed’=participants with available data for each specified category.
AUC0-6 hr was defined as area under the plasma concentration versus time curve from time 0 to 6 hours post-dose, obtained by a non-compartmental analysis from the concentration-time data. […] Timeframe: Cycles 1 and 2: pre-dose (0 hour), 1, 2, 3, 4, 5, and 6 hours post-dose on Day 1. Analysis was performed on PK population. Here, ‘number analyzed’=participants with available data for each specified category.

Structure (SMILES): CC(C)NC(=O)COc1cccc(-c2nc(Nc3ccc4[nH]ncc4c3)c3ccccc3n2)c1 [Belumosudil, 2-{3-[4-(1H-indazol-5-ylamino)-2-quinazolinyl]phenoxy}-N-(propan-2-yl) acetamide]
- subjects who discontinued because of progression of cGVHD (patients with cGVHD; Example 2): 16%
- subjects who discontinued because of progression of underlying malignant disease (patients with cGVHD; Example 2): 4%
- subjects who received an RDI >95% (patients with cGVHD; Example 2): Eighty-one
- subjects with increased liver function tests (LFTs) (patients with cGVHD; Example 2): Twenty-four
- subjects with ≥1 SAE (patients with cGVHD; Example 2): Thirty eight
- tolerability (patients with cGVHD; Example 2): well tolerated
- cases of Epstein-Barr viremia that required treatment (patients with cGVHD; Example 2, unrelated to belumosudil): 1 case
- Hyperglycemia (patients with cGVHD; 200 mg daily (n = 66)): 3 (5) n (%)
- Hypertension (patients with cGVHD; 200 mg daily (n = 66)): 4 (6) n (%)
- Pneumonia (patients with cGVHD; 200 mg daily (n = 66)): 6 (9) n (%)
- Hyperglycemia (patients with cGVHD; 200 mg twice daily (n = 66)): 3 (5) n (%)
- Hypertension (patients with cGVHD; 200 mg twice daily (n = 66)): 4 (6) n (%)
- Pneumonia (patients with cGVHD; 200 mg twice daily (n = 66)): 4 (6) n (%)
- Hyperglycemia (patients with cGVHD; Total (N = 132)): 6 (5) n (%)
- Hypertension (patients with cGVHD; Total (N = 132)): 8 (6) n (%)
- Pneumonia (patients with cGVHD; Total (N = 132)): 10 (8) n (%)
- ALT increased (patients with cGVHD; 200 mg daily (n = 66)): 4 (6) n (%)
- AST increased (patients with cGVHD; 200 mg daily (n = 66)): 5 (8) n (%)
- Bilirubin conjugated increased (patients with cGVHD; 200 mg daily (n = 66)): 1 (2) n (%)
- Blood alkaline phosphatase increased (patients with cGVHD; 200 mg daily (n = 66)): 4 (6) n (%)
- GGT increased (patients with cGVHD; 200 mg daily (n = 66)): 6 (9) n (%)
- Hypoalbuminemia (patients with cGVHD; 200 mg daily (n = 66)): 2 (3) n (%)
- LFT increased (patients with cGVHD; 200 mg daily (n = 66)): 1 (2) n (%)
- Transaminases increased (patients with cGVHD; 200 mg daily (n = 66)): 1 (2) n (%)
- ALT increased (patients with cGVHD; 200 mg twice daily (n = 66)): 7 (11) n (%)
- AST increased (patients with cGVHD; 200 mg twice daily (n = 66)): 8 (12) n (%)
- Bilirubin conjugated increased (patients with cGVHD; 200 mg twice daily (n = 66)): 0 n (%)
- Blood alkaline phosphatase increased (patients with cGVHD; 200 mg twice daily (n = 66)): 6 (9) n (%)
- GGT increased (patients with cGVHD; 200 mg twice daily (n = 66)): 10 (15) n (%)
- Hypoalbuminemia (patients with cGVHD; 200 mg twice daily (n = 66)): 2 (3) n (%)
- LFT increased (patients with cGVHD; 200 mg twice daily (n = 66)): 0 n (%)
- Transaminases increased (patients with cGVHD; 200 mg twice daily (n = 66)): 1 (2) n (%)
- ALT increased (patients with cGVHD; Total (N = 132)): 11 (8) n (%)
- AST increased (patients with cGVHD; Total (N = 132)): 13 (10) n (%)
- Bilirubin conjugated increased (patients with cGVHD; Total (N = 132)): 1 (1) n (%)
- Blood alkaline phosphatase increased (patients with cGVHD; Total (N = 132)): 10 (8) n (%)
- GGT increased (patients with cGVHD; Total (N = 132)): 16 (12) n (%)
- Hypoalbuminemia (patients with cGVHD; Total (N = 132)): 4 (3) n (%)
- LFT increased (patients with cGVHD; Total (N = 132)): 1 (1) n (%)
- Transaminases increased (patients with cGVHD; Total (N = 132)): 2 (2) n (%)
- Any AE (patients with cGVHD; Total (N = 132)): 131 (99) n (%)
- Drug-related AEs (patients with cGVHD; Total (N = 132)): 89 (67) n (%)
- Drug-related SAEs (patients with cGVHD; Total (N = 132)): 7 (5) n (%)
- Grade ≥ 3 AEs (patients with cGVHD; Total (N = 132)): 71 (54) n (%)
- Liver-related AEs (patients with cGVHD; Total (N = 132)): 31 (24) n (%)
- SAEs (patients with cGVHD; Total (N = 132)): 50 (38) n (%)
- Deaths (patients with cGVHD; Total (N = 132), six died during LTFU (>28 days after last dose)): 14 (11) n (%)
- Cmax, geometric mean (geometric CV) ([1]; Cycle 1 Day 1, Cohort 1, belumosudil 200 mg QD): 2500 nanograms per milliliter
- Cmax, geometric mean (geometric CV) ([1]; Cycle 1 Day 1, Cohort 2, belumosudil 200 mg BID): 1400 nanograms per milliliter
- Cmax, geometric mean (geometric CV) ([1]; Cycle 1 Day 1, Cohort 3, belumosudil 400 mg QD): 2960 nanograms per milliliter
- Cmax, geometric mean (geometric CV) ([1]; Cycle 2 Day 1, Cohort 1, belumosudil 200 mg QD): 2020 nanograms per milliliter
- Cmax, geometric mean (geometric CV) ([1]; Cycle 2 Day 1, Cohort 2, belumosudil 200 mg BID): 1890 nanograms per milliliter
- Cmax, geometric mean (geometric CV) ([1]; Cycle 2 Day 1, Cohort 3, belumosudil 400 mg QD): 3270 nanograms per milliliter
- AUC0-6 hr, Geometric Mean (Geometric Coefficient of Variation) ([1]; Belumosudil 200 mg BID, Cycle 1 Day 1): 4960 hours*nanograms per milliliter
- AUC0-6 hr, Geometric Mean (Geometric Coefficient of Variation) ([1]; Belumosudil 200 mg BID, Cycle 2 Day 1): 7190 hours*nanograms per milliliter
- AUC0-6 hr, Geometric Mean (Geometric Coefficient of Variation) ([1]; Belumosudil 200 mg QD, Cycle 1 Day 1): 8350 hours*nanograms per milliliter
- AUC0-6 hr, Geometric Mean (Geometric Coefficient of Variation) ([1]; Belumosudil 200 mg QD, Cycle 2 Day 1): 7090 hours*nanograms per milliliter
- AUC0-6 hr, Geometric Mean (Geometric Coefficient of Variation) ([1]; Belumosudil 400 mg QD, Cycle 1 Day 1): 11500 hours*nanograms per milliliter
- AUC0-6 hr, Geometric Mean (Geometric Coefficient of Variation) ([1]; Belumosudil 400 mg QD, Cycle 2 Day 1): 12000 hours*nanograms per milliliter
